Read-outs that look alike come from different tables or passages of the source.
Tests used:
[1] = target: T1, 12-LO (Homo sapiens, UniProt P18054); assay: 12-HETE formation in intact PMNL, A23187 in absence of AA; assay type: cell-based; conditions: read-out: PMNL (w/o AA) 12-HETE IC50
T1 construct: endogenous in cells; host or cells: platelet impurities in human PMNL preparations
T1 sequence (P18054 1-663): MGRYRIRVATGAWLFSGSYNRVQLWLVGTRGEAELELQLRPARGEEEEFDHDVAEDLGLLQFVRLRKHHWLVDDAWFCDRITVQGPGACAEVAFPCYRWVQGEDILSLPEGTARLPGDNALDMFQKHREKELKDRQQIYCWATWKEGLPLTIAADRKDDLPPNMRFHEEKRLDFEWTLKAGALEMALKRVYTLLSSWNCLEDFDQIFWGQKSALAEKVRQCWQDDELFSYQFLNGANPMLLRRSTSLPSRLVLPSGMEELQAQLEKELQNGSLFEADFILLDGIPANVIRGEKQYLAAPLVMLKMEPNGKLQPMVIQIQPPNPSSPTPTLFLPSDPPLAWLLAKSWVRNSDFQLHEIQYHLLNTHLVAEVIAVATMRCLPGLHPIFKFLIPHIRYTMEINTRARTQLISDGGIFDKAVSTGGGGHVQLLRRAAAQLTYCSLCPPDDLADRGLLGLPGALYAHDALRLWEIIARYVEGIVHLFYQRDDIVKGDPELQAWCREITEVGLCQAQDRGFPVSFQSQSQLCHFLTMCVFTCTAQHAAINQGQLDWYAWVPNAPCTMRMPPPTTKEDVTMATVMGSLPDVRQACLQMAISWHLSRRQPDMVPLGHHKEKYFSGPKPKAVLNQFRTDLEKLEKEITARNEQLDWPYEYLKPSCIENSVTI

[2] = target: T2, 5-LO (Homo sapiens, UniProt P09917); assay: 5-LO product formation (LTB4, 5-HETE) in intact PMNL, A23187 in absence of AA; assay type: cell-based
T2 construct: endogenous in cells; host or cells: human PMNL from buffy coats
T2 sequence (P09917 1-674): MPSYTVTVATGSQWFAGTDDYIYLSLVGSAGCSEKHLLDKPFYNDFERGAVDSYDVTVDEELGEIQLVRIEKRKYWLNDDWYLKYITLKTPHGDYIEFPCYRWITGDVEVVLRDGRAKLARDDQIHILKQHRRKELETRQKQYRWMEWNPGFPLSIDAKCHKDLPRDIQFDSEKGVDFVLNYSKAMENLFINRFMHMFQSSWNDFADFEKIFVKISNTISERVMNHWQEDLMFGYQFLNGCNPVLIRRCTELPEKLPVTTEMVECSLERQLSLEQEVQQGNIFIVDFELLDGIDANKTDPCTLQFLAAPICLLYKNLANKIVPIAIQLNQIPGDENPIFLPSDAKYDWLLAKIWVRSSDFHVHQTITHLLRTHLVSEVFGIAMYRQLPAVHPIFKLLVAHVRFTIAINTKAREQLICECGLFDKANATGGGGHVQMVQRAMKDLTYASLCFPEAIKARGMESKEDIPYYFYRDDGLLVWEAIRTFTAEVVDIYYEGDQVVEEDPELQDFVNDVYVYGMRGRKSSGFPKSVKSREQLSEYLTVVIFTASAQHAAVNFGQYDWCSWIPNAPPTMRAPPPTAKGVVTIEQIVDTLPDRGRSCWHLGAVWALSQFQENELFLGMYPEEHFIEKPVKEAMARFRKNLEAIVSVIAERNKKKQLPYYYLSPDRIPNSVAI
Protocol: Buffy coats from different donors of different blood types were commercially obtained from DRK Blutspendedienst Baden-Württemberg Institute Frankfurt. Donors have given their written consent. To avoid initial blood clotting only buffy coats from one donor or several donors with the same blood type were combined and diluted with 1× PBS mixed with 5% dextran solution and allowed to stand for 30 min at RT to separate the erythrocytes. Following separation, the supernatant was transferred very gently to new 50-ml tubes containing lymphocyte separation medium (LSM) and centrifuged for 10 min at 800 ×g at RT with the centrifuge brake turned off. Afterwards, the supernatant was decanted carefully to discard the platelets and monocytes. The PMNL were washed with 1× PBS before the residual erythrocytes were lysed in two cycles: the cell pellet was resuspended with 10 ml H2O and vortexed for 45 s, and lysis was stopped with 40 ml 1 × PBS. After 10-min centrifugation at 200 ×g at RT, the cycle was repeated once. The supernatant was aspirated, the cell pellet resuspended in 5 ml PBS/glucose and initially separated PMNL preparations with different blood types were finally pooled to gain a sufficient number of cells.
5-LO activity in intact cells was assayed by measuring LTB4 (leukotriene B4) and 5-HETE (5-hydroxyeicosatetraenoic acid) levels in the PMNL supernatants. […] Recombinant 5-LO enzyme activity was assessed by the determination of 5-HETE levels representing a direct product assay. In the cell-based LO activity assays, 5 × 10^6 cells per ml PBS/glucose were transferred to 5 ml glass tubes containing 1 mM CaCl2 and stored on ice. […] […] Recombinant 5-LO activity assays were carried out using 3 µg r5LO-wt enzyme. The enzyme was diluted in PBS/EDTA/ATP, transferred into 5-ml glass tubes, and stored on ice. […] The samples were then pre-heated at 37°C in a water bath and subsequently stimulated with 1 mM CaCl2 and 20 µM AA for 10 min at 37°C. The reaction was stopped by placing the glass tubes on ice. The supernatants were transferred to 1.5 ml reaction tubes and stored at −80°C before LC-MS (liquid chromatography and mass spectrometry) analysis of LTB4 and HETEs as described in 2.6 at the Institute of Pharmacology, Goethe University, University Hospital, Germany.
For experiments shown in Table 4 samples after treatment were supplemented with 500 µl PBS, 30 µl HCl (1 N), and 200 ng internal standard prostaglandin B1. Those samples containing intact cells were centrifuged for 10 min (870 g, room temperature). […] The eluate was diluted with 125 µl H2O and analyzed by reverse-phase HPLC as previously described ([Steinhilber et al., 1989]). […] Unless otherwise stated, 5-LO metabolites 6-trans-LTB4, 12-epi-6-trans-LTB4, LTB4, and 5-H(p)ETE were quantified.

[3] = read-out: PMNL (w/o AA) 5-HETE IC50
[4] = read-out: PMNL (w/o AA) LTB4 IC50

Row | Structure (SMILES) | IC50 [1] [nM] | IC50 [2, 3] [nM] | IC50 [2, 4] [nM]
1 | CCCCCCCCC=C(CCCCCCCC(=O)O)[N+](=O)[O-] [18.9.9, 9-nitro-octadec-9-enoic acid] | 6260 ± 823 | 2340 ± 1500 | 2580 ± 1400
2 | CCCCCCCCCCC=C(CCCCCCCC(=O)O)[N+](=O)[O-] [20.9.9, 9-nitro-eicos-9-enoic acid] | 15500 ± 740 | 2060 ± 1340 | 2050 ± 1250

— PMC8637440, “Structural Modifications Yield Novel Insights Into the Intriguing Pharmacodynamic Potential of Anti-inflammatory Nitro-Fatty Acids” (Frontiers in Pharmacology, 2021)
